Measured values taken from ChEMBL document CHEMBL3808371, “Design, synthesis and biological evaluation of diaziridinyl quinone isoxazole hybrids” (Eur J Med Chem, 2016).
Converted amounts (≈) assume the structure as drawn. The source made the active and inactive calls. No cut-off for these calls is given here.

Tests used:
A549 = assay: Cytotoxicity against human A549 cells after 72 hrs by XTT assay; type: functional, cell-based; conditions: A549, 72 h
[1] = Cytotoxicity against human PC3 cells after 72 hrs by XTT assay; type: functional, cell-based; conditions: PC-3, 72 h
Staphylococcus aureus [2] = assay: Antimicrobial activity against Staphylococcus aureus MTCC 96 after 24 hrs by well diffusion method; type: functional; conditions: MTCC 96, 24 h
Bacillus subtilis [3] = assay: Antimicrobial activity against Bacillus subtilis MTCC 121 after 24 hrs by well diffusion method; type: functional; conditions: MTCC 121, 24 h
Staphylococcus aureus [4] = assay: Antimicrobial activity against Staphylococcus aureus MLS16 MTCC 2940 after 24 hrs by well diffusion method; type: functional; conditions: MLS16 MTCC 2940, 24 h
Micrococcus luteus [5] = assay: Antimicrobial activity against Micrococcus luteus MTCC 2470 after 24 hrs by well diffusion method; type: functional; conditions: MTCC 2470, 24 h
Raoultella planticola [6] = assay: Antimicrobial activity against Klebsiella planticola MTCC 530 after 24 hrs by well diffusion method; type: functional; conditions: MTCC 530, 24 h
Escherichia coli = assay: Antimicrobial activity against Escherichia coli MTCC 739 after 24 hrs by well diffusion method; type: functional; conditions: MTCC 739, 24 h
Pseudomonas aeruginosa = assay: Antimicrobial activity against Pseudomonas aeruginosa MTCC 2453 after 24 hrs by well diffusion method; type: functional; conditions: MTCC 2453, 24 h
Candida albicans = assay: Antimicrobial activity against Candida albicans MTCC 3017 after 24 hrs by well diffusion method; type: functional
Bacillus subtilis [7] = assay: Bactericidal activity against Bacillus subtilis MTCC 121 after 24 hrs by serial dilution method; type: functional; conditions: MTCC 121, 24 h
Staphylococcus aureus [8] = assay: Bactericidal activity against Staphylococcus aureus MTCC 96 after 24 hrs by serial dilution method; type: functional; conditions: MTCC 96, 24 h
Staphylococcus aureus [9] = assay: Bactericidal activity against Staphylococcus aureus MLS16 MTCC 2940 after 24 hrs by serial dilution method; type: functional; conditions: MLS16 MTCC 2940, 24 h
Micrococcus luteus [10] = assay: Bactericidal activity against Micrococcus luteus MTCC 2470 after 24 hrs by serial dilution method; type: functional; conditions: MTCC 2470, 24 h
Raoultella planticola [11] = assay: Bactericidal activity against Klebsiella planticola MTCC 530 after 24 hrs by serial dilution method; type: functional; conditions: MTCC 530, 24 h
Bacillus subtilis [12] = assay: Antibiofilm activity against Bacillus subtilis MTCC 121 after 24 hrs by crystal violet staining based assay; type: functional, organism-based; conditions: MTCC 121, 24 h
Staphylococcus aureus [13] = assay: Antibiofilm activity against Staphylococcus aureus MTCC 96 after 24 hrs by crystal violet staining based assay; type: functional, organism-based; conditions: MTCC 96, 24 h
Staphylococcus aureus [14] = assay: Antibiofilm activity against Staphylococcus aureus MLS16 MTCC 2940 after 24 hrs by crystal violet staining based assay; type: functional, organism-based; conditions: MLS16 MTCC 2940, 24 h
Micrococcus luteus [15] = assay: Antibiofilm activity against Micrococcus luteus MTCC 2470 after 24 hrs by crystal violet staining based assay; type: functional, organism-based; conditions: MTCC 2470, 24 h
Raoultella planticola [16] = assay: Antibiofilm activity against Klebsiella planticola MTCC 530 after 24 hrs by crystal violet staining based assay; type: functional, organism-based; conditions: MTCC 530, 24 h

In the case of `COc1ccc(CN(C)C(=O)c2ccc(-c3cc(C4=CC(=O)C=CC4=O)no3)s2)cc1`, the IC50 (A549) is reported as > 30 µM and the IC50 [1] is reported as < 30 µM.
In the case of `CCCN(C)C(=O)c1ccc(-c2cc(C3=CC(=O)C=CC3=O)no2)s1`, the IC50 (A549) is reported as > 30 µM and the IC50 [1] is reported as < 30 µM.
In the case of `CN(Cc1ccccc1)C(=O)c1ccc(-c2cc(C3=CC(=O)C=CC3=O)no2)s1`, the IC50 (A549) is reported as > 30 µM and the IC50 [1] is reported as 11 µM.
In the case of `CCCN(C)C(=O)c1ccc(-c2cc(-c3cc(OC)ccc3OC)no2)s1`, the IC50 (A549) is reported as > 30 µM and the IC50 [1] is reported as > 30 µM.
In the case of `COc1ccc(OC)c(-c2cc(-c3ccc(C(=O)NC4CC4)s3)on2)c1`, the IC50 (A549) is reported as > 30 µM and the IC50 [1] is reported as 7.8 µM.
In the case of `CN(Cc1ccc(F)cc1)C(=O)c1ccc(-c2cc(C3=CC(=O)C=CC3=O)no2)s1`, the IC50 (A549) is reported as > 30 µM and the IC50 [1] is reported as > 30 µM.
In the case of `CN(C)C(=O)c1ccc(-c2cc(C3=C(N4CC4)C(=O)C=C(N4CC4)C3=O)no2)s1`, the IC50 (A549) is reported as 1.5 µM, the IC50 [1] is reported as > 30 µM and the MIC (Staphylococcus aureus [2]) is reported as 15.6 µg/mL (≈ 38 µM). The MIC (Bacillus subtilis [3]) was 3.9 µg/mL (≈ 9.5 µM), the MIC (Staphylococcus aureus [4]) was 15.6 µg/mL (≈ 38 µM) and the MIC (Micrococcus luteus [5]) was 62.5 µg/mL (≈ 152 µM). The MIC (Raoultella planticola [6]) was 7.8 µg/mL (≈ 19 µM), the MIC (Escherichia coli) was > 125 µg/mL and the MIC (Pseudomonas aeruginosa) was > 125 µg/mL. It also gave an MIC (Candida albicans; MTCC 3017, 24 h) of 15.6 µg/mL (≈ 38 µM), an MBC (Bacillus subtilis [7]) of 7.8 µg/mL (≈ 19 µM) and an MBC (Staphylococcus aureus [8]) of 31.2 µg/mL (≈ 76 µM). For the same compound, the MBC (Staphylococcus aureus [9]) was 31.2 µg/mL (≈ 76 µM), the MBC (Micrococcus luteus [10]) was 125 µg/mL (≈ 305 µM) and the MBC (Raoultella planticola [11]) was 31.2 µg/mL (≈ 76 µM). It also gave an IC50 (Bacillus subtilis [12]) of 2.2 µM, an IC50 (Staphylococcus aureus [13]) of 9.8 µM and an IC50 (Staphylococcus aureus [14]) of 10.1 µM. The IC50 (Micrococcus luteus [15]) was 38.9 µM and the IC50 (Raoultella planticola [16]) was 6.1 µM.
With `COc1ccc(OC)c(-c2cc(-c3ccc(C(=O)NCC4CC4)s3)on2)c1` the IC50 (A549) was > 30 µM and the IC50 [1] was > 30 µM.
In the case of `O=C1C=CC(=O)C(c2cc(-c3ccc(C(=O)N4CCCCC4)s3)on2)=C1`, the IC50 (A549) is reported as > 30 µM and the IC50 [1] is reported as > 30 µM.
In the case of `COc1ccc(OC)c(-c2cc(-c3ccc(C(=O)N4CCOCC4)s3)on2)c1`, the IC50 (A549) is reported as > 30 µM and the IC50 [1] is reported as > 30 µM.
`CCN(CC)C(=O)c1ccc(-c2cc(C3=CC(=O)C=CC3=O)no2)s1` showed an IC50 (A549) of 10 µM and an IC50 [1] of 8.9 µM.
With `O=C1C=CC(=O)C(c2cc(-c3ccc(C(=O)N4CCCC4)s3)on2)=C1` the IC50 (A549) was > 30 µM and the IC50 [1] was < 30 µM.
`O=C1C=C(N2CC2)C(=O)C(c2cc(-c3ccc(C(=O)N4CCCC4)s3)on2)=C1N1CC1` gave an IC50 (A549) of 1.7 µM, an IC50 [1] of 1 µM and an MIC (Staphylococcus aureus [2]) of 15.6 µg/mL (≈ 35.7 µM). For the same compound, the MIC (Bacillus subtilis [3]) was 7.8 µg/mL (≈ 17.9 µM), the MIC (Staphylococcus aureus [4]) was 15.6 µg/mL (≈ 35.7 µM) and the MIC (Micrococcus luteus [5]) was 31.2 µg/mL (≈ 71.5 µM). For the same compound, the MIC (Raoultella planticola [6]) was 15.6 µg/mL (≈ 35.7 µM), the MIC (Escherichia coli) was > 125 µg/mL and the MIC (Pseudomonas aeruginosa) was > 125 µg/mL. The MIC (Candida albicans; MTCC 3017, 24 h) was 31.2 µg/mL (≈ 71.5 µM), the MBC (Bacillus subtilis [7]) was 15.6 µg/mL (≈ 35.7 µM) and the MBC (Staphylococcus aureus [8]) was 31.2 µg/mL (≈ 71.5 µM). The MBC (Staphylococcus aureus [9]) was 31.2 µg/mL (≈ 71.5 µM), the MBC (Micrococcus luteus [10]) was 62.5 µg/mL (≈ 143 µM) and the MBC (Raoultella planticola [11]) was 31.2 µg/mL (≈ 71.5 µM).
Work on `O=C(O)c1cn(C2CC2)c2cc(N3CCNCC3)c(F)cc2c1=O` [CIPROFLOXACIN] yielded an MIC (Staphylococcus aureus [2]) of 0.9 µg/mL (≈ 2.72 µM), an MIC (Bacillus subtilis [3]) of 0.9 µg/mL (≈ 2.72 µM) and an MIC (Staphylococcus aureus [4]) of 0.9 µg/mL (≈ 2.72 µM). For the same compound, the MIC (Micrococcus luteus [5]) was 0.9 µg/mL (≈ 2.72 µM), the MIC (Raoultella planticola [6]) was 0.9 µg/mL (≈ 2.72 µM) and the MIC (Escherichia coli) was 0.9 µg/mL (≈ 2.72 µM). The MIC (Pseudomonas aeruginosa) was 0.9 µg/mL (≈ 2.72 µM), the MIC (Candida albicans) was “inactive” and the MBC (Bacillus subtilis [7]) was 1.9 µg/mL (≈ 5.73 µM). The MBC (Staphylococcus aureus [8]) was 0.9 µg/mL (≈ 2.72 µM), the MBC (Staphylococcus aureus [9]) was 1.9 µg/mL (≈ 5.73 µM) and the MBC (Micrococcus luteus [10]) was 0.9 µg/mL (≈ 2.72 µM). The MBC (Raoultella planticola [11]) was 1.9 µg/mL (≈ 5.73 µM), the IC50 (Staphylococcus aureus [13]) was 0.7 µM and the IC50 (Micrococcus luteus [15]) was 0.8 µM. The IC50 (Raoultella planticola [16]) was 0.6 µM.
